# PubChem BioAssay AID1963843 (Molecular Pharmacology Branch, DTP, NCI, 2024)
# pIC50: −log10 of the molar value.
# Tested on: 616215-338-R-J1-PDC complex spheroid viability
# Experiment: Anticancer human tumor 616215-338-R-J1-PDC patient-derived colon adenocarcinoma cell line growth inhibition [POLQ]
# Details: for pIC50: curve of first compound; for viability, T/C: stronger effect = lower value
# Summary of the method: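 Patient-derived tumour cells were co-cultured with HUVEC and mesenchymal stem cells as multicellular spheroids at 37 °C. They were treated with POLQ inhibitors (novobiocin, ART-558, RP6685) alone or combined with other agents. Top concentrations were at or near clinical Cmax (otherwise 10 microM; SN-38 at 1 microM), decreasing in half-log steps.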
# [1] = second compound 0.0316 µM, first compound 0.0316 µM
# [2] = second compound 0.0316 µM, first compound 0.1 µM
# [3] = second compound 0.0316 µM, first compound 0.316 µM
# [4] = second compound 0.0316 µM, first compound 1 µM
# [5] = second compound 0.0316 µM, first compound 3.16 µM
# [6] = second compound 0.0316 µM, first compound 10 µM
# [7] = second compound 0.1 µM, first compound 0.0316 µM
# [8] = second compound 0.1 µM, first compound 0.1 µM
# [9] = second compound 0.1 µM, first compound 0.316 µM
# [10] = second compound 0.1 µM, first compound 1 µM
# [11] = second compound 0.1 µM, first compound 3.16 µM
# [12] = second compound 0.1 µM, first compound 10 µM
# [13] = second compound 0.316 µM, first compound 0.0316 µM
# [14] = second compound 0.316 µM, first compound 0.1 µM
# [15] = second compound 0.316 µM, first compound 0.316 µM
# [16] = second compound 0.316 µM, first compound 1 µM
# [17] = second compound 0.316 µM, first compound 3.16 µM
# [18] = second compound 0.316 µM, first compound 10 µM
# [19] = second compound 1 µM, first compound 0.0316 µM
# [20] = second compound 1 µM, first compound 0.1 µM
# [21] = second compound 1 µM, first compound 0.316 µM
# [22] = second compound 1 µM, first compound 1 µM
# [23] = second compound 1 µM, first compound 3.16 µM
# [24] = second compound 1 µM, first compound 10 µM
# [25] = second compound 3.16 µM, first compound 0.0316 µM
# [26] = second compound 3.16 µM, first compound 0.1 µM
# [27] = second compound 3.16 µM, first compound 0.316 µM
# [28] = second compound 3.16 µM, first compound 1 µM
# [29] = second compound 3.16 µM, first compound 3.16 µM
# [30] = second compound 3.16 µM, first compound 10 µM
# [31] = second compound 10 µM, first compound 0.0316 µM
# [32] = second compound 10 µM, first compound 0.1 µM
# [33] = second compound 10 µM, first compound 0.316 µM
# [34] = second compound 10 µM, first compound 1 µM
# [35] = second compound 10 µM, first compound 3.16 µM
# [36] = second compound 10 µM, first compound 10 µM
# 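Further: spheroids exposed to compounds for one week before readout.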
# 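Wherever viability, T/C is given: percent viability relative to DMSO vehicle wells taken as 100%.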
structure (smiles),measurement,setting,value
CC1COCCN1c1cc(-c2ccnn2C)c2ccnc(-c3ccn[nH]3)c2n1 (stereo not drawn) + Nc1ccc(C#CCN(C(=O)Cc2ncc(C(F)(F)F)cc2C(F)(F)F)c2ccc(F)cc2)nn1,pIC50,second compound 0.0316 µM,6.81
same,pIC50,second compound 0.1 µM,6.78
same,pIC50,second compound 0.316 µM,6.72
same,pIC50,second compound 1 µM,6.94
same,pIC50,second compound 3.16 µM,6.72
same,pIC50,second compound 10 µM,6.81
same,"viability, T/C",[1],86%
same,"viability, T/C",[2],56.8%
same,"viability, T/C",[3],38.9%
same,"viability, T/C",[4],31.7%
same,"viability, T/C",[5],25.9%
same,"viability, T/C",[6],27.4%
same,"viability, T/C",[7],93.8%
same,"viability, T/C",[8],60.6%
same,"viability, T/C",[9],34.7%
same,"viability, T/C",[10],29.8%
same,"viability, T/C",[11],24.5%
same,"viability, T/C",[12],19.4%
same,"viability, T/C",[13],102%
same,"viability, T/C",[14],67.4%
same,"viability, T/C",[15],35.2%
same,"viability, T/C",[16],26.8%
same,"viability, T/C",[17],22.4%
same,"viability, T/C",[18],18.9%
same,"viability, T/C",[19],101%
same,"viability, T/C",[20],52.9%
same,"viability, T/C",[21],29%
same,"viability, T/C",[22],26.8%
same,"viability, T/C",[23],21.6%
same,"viability, T/C",[24],23.1%
same,"viability, T/C",[25],96.7%
same,"viability, T/C",[26],59.5%
same,"viability, T/C",[27],45.8%
same,"viability, T/C",[28],24.8%
same,"viability, T/C",[29],23.6%
same,"viability, T/C",[30],18.7%
same,"viability, T/C",[31],104%
same,"viability, T/C",[32],56.4%
same,"viability, T/C",[33],40.1%
same,"viability, T/C",[34],25.1%
same,"viability, T/C",[35],20.1%
same,"viability, T/C",[36],22.2%
CCCS(=O)(=O)Nc1ccc(F)c(C(=O)c2c[nH]c3ncc(-c4ccc(Cl)cc4)cc23)c1F + Nc1ccc(C#CCN(C(=O)Cc2ncc(C(F)(F)F)cc2C(F)(F)F)c2ccc(F)cc2)nn1,pIC50,second compound 0.0316 µM,5.20
same,pIC50,second compound 0.1 µM,5.21
same,pIC50,second compound 0.316 µM,5.21
same,pIC50,second compound 1 µM,5.21
same,pIC50,second compound 3.16 µM,5.21
same,pIC50,second compound 10 µM,5.25
same,"viability, T/C",[1],107%
same,"viability, T/C",[2],109%
same,"viability, T/C",[3],105%
same,"viability, T/C",[4],110%
same,"viability, T/C",[5],114%
same,"viability, T/C",[6],11.4%
same,"viability, T/C",[7],107%
same,"viability, T/C",[8],111%
same,"viability, T/C",[9],110%
same,"viability, T/C",[10],109%
same,"viability, T/C",[11],101%
same,"viability, T/C",[12],11.5%
same,"viability, T/C",[13],101%
same,"viability, T/C",[14],104%
same,"viability, T/C",[15],106%
same,"viability, T/C",[16],105%
same,"viability, T/C",[17],102%
same,"viability, T/C",[18],13.8%
same,"viability, T/C",[19],112%
same,"viability, T/C",[20],114%
same,"viability, T/C",[21],101%
same,"viability, T/C",[22],111%
same,"viability, T/C",[23],102%
same,"viability, T/C",[24],11.9%
same,"viability, T/C",[25],111%
same,"viability, T/C",[26],103%
same,"viability, T/C",[27],107%
same,"viability, T/C",[28],102%
same,"viability, T/C",[29],100%
same,"viability, T/C",[30],13%
same,"viability, T/C",[31],109%
same,"viability, T/C",[32],86.3%
same,"viability, T/C",[33],101%
same,"viability, T/C",[34],94.4%
same,"viability, T/C",[35],92.3%
same,"viability, T/C",[36],9.03%
CNCc1ccc(-c2[nH]c3cc(F)cc4c3c2CCNC4=O)cc1 + Nc1ccc(C#CCN(C(=O)Cc2ncc(C(F)(F)F)cc2C(F)(F)F)c2ccc(F)cc2)nn1,pIC50,second compound 0.0316 µM,5.10
same,pIC50,second compound 0.1 µM,5.14
same,pIC50,second compound 0.316 µM,5.11
same,pIC50,second compound 1 µM,5.12
same,pIC50,second compound 3.16 µM,5.15
same,pIC50,second compound 10 µM,5.21
same,"viability, T/C",[1],101%
same,"viability, T/C",[2],107%
same,"viability, T/C",[3],97%
same,"viability, T/C",[4],104%
same,"viability, T/C",[5],104%
same,"viability, T/C",[6],36.2%
same,"viability, T/C",[7],104%
same,"viability, T/C",[8],111%
same,"viability, T/C",[9],90.3%
same,"viability, T/C",[10],119%
same,"viability, T/C",[11],122%
same,"viability, T/C",[12],25.8%
same,"viability, T/C",[13],102%
same,"viability, T/C",[14],112%
same,"viability, T/C",[15],104%
same,"viability, T/C",[16],95.7%
same,"viability, T/C",[17],119%
same,"viability, T/C",[18],33.4%
same,"viability, T/C",[19],107%
same,"viability, T/C",[20],94.8%
same,"viability, T/C",[21],95.8%
same,"viability, T/C",[22],105%
same,"viability, T/C",[23],106%
same,"viability, T/C",[24],33%
same,"viability, T/C",[25],96.8%
same,"viability, T/C",[26],93.3%
same,"viability, T/C",[27],93.8%
same,"viability, T/C",[28],102%
same,"viability, T/C",[29],105%
same,"viability, T/C",[30],28.6%
same,"viability, T/C",[31],93%
same,"viability, T/C",[32],78.5%
same,"viability, T/C",[33],102%
same,"viability, T/C",[34],103%
same,"viability, T/C",[35],103%
same,"viability, T/C",[36],17.9%
COc1cccc(OCCCN)c1-c1cc(Nc2cnc(C#N)cn2)n[nH]1 + Nc1ccc(C#CCN(C(=O)Cc2ncc(C(F)(F)F)cc2C(F)(F)F)c2ccc(F)cc2)nn1,pIC50,second compound 0.0316 µM,6.87
same,pIC50,second compound 0.1 µM,7.10
same,pIC50,second compound 0.316 µM,7.12
same,pIC50,second compound 1 µM,7.28
same,pIC50,second compound 3.16 µM,7.18
same,pIC50,second compound 10 µM,7.41
same,"viability, T/C","second compound 0.0316 µM, first compound 0.00316 µM",109%
same,"viability, T/C","second compound 0.0316 µM, first compound 0.01 µM",84.9%
same,"viability, T/C",[1],91.2%
same,"viability, T/C",[2],53.8%
same,"viability, T/C",[3],36.9%
same,"viability, T/C",[4],33.1%
same,"viability, T/C","second compound 0.1 µM, first compound 0.00316 µM",101%
same,"viability, T/C","second compound 0.1 µM, first compound 0.01 µM",102%
same,"viability, T/C",[7],77.3%
same,"viability, T/C",[8],43%
same,"viability, T/C",[9],42.6%
same,"viability, T/C",[10],36%
same,"viability, T/C","second compound 0.316 µM, first compound 0.00316 µM",98.9%
same,"viability, T/C","second compound 0.316 µM, first compound 0.01 µM",97.2%
same,"viability, T/C",[13],71.2%
same,"viability, T/C",[14],43.3%
same,"viability, T/C",[15],42.4%
same,"viability, T/C",[16],34.7%
same,"viability, T/C","second compound 1 µM, first compound 0.00316 µM",97.5%
same,"viability, T/C","second compound 1 µM, first compound 0.01 µM",96.6%
same,"viability, T/C",[19],60.3%
same,"viability, T/C",[20],38.6%
same,"viability, T/C",[21],38%
same,"viability, T/C",[22],29.4%
same,"viability, T/C","second compound 3.16 µM, first compound 0.00316 µM",103%
same,"viability, T/C","second compound 3.16 µM, first compound 0.01 µM",90.3%
same,"viability, T/C",[25],72.7%
same,"viability, T/C",[26],35.7%
same,"viability, T/C",[27],32.9%
same,"viability, T/C",[28],29.7%
same,"viability, T/C","second compound 10 µM, first compound 0.00316 µM",91.7%
same,"viability, T/C","second compound 10 µM, first compound 0.01 µM",69.3%
same,"viability, T/C",[31],50.2%
same,"viability, T/C",[32],41.2%
same,"viability, T/C",[33],34.4%
same,"viability, T/C",[34],24%
